Source: PubChem BioAssay AID1918941 (Molecular Pharmacology Branch, DTP, NCI, 2023)
pIC50: −log10 of the molar value.

Test system: SW 1271 complex spheroids, viability
Test: Anticancer human tumor SW 1271 cell line growth inhibition [LSD1];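 note: spheroids exposed to agents for 7 days before luminescence read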;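 for viability, T/C: 100% = DMSO vehicle control viability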
Details: for pIC50: curve of first compound; for viability, T/C: stronger effect = lower value
In short: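 Drug combinations with the LSD1 inhibitor iadademstat tested on tumor cells co-cultured as spheroids with endothelial cells and mesenchymal stem cells. Concentrations descended in half-log increments from clinical Cmax or 10 microM.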

[1] = second compound 0.1 µM, first compound 0.0316 µM
[2] = second compound 0.1 µM, first compound 0.1 µM
[3] = second compound 0.1 µM, first compound 0.316 µM
[4] = second compound 0.1 µM, first compound 1 µM
[5] = second compound 0.1 µM, first compound 3.16 µM
[6] = second compound 0.1 µM, first compound 10 µM
[7] = second compound 0.316 µM, first compound 0.0316 µM
[8] = second compound 0.316 µM, first compound 0.1 µM
[9] = second compound 0.316 µM, first compound 0.316 µM
[10] = second compound 0.316 µM, first compound 1 µM
[11] = second compound 0.316 µM, first compound 3.16 µM
[12] = second compound 0.316 µM, first compound 10 µM
[13] = second compound 1 µM, first compound 0.0316 µM
[14] = second compound 1 µM, first compound 0.1 µM
[15] = second compound 1 µM, first compound 0.316 µM
[16] = second compound 1 µM, first compound 1 µM
[17] = second compound 1 µM, first compound 3.16 µM
[18] = second compound 1 µM, first compound 10 µM
[19] = second compound 3.16 µM, first compound 0.0316 µM
[20] = second compound 3.16 µM, first compound 0.1 µM
[21] = second compound 3.16 µM, first compound 0.316 µM
[22] = second compound 3.16 µM, first compound 1 µM
[23] = second compound 3.16 µM, first compound 3.16 µM
[24] = second compound 3.16 µM, first compound 10 µM
[25] = second compound 10 µM, first compound 0.0316 µM
[26] = second compound 10 µM, first compound 0.1 µM
[27] = second compound 10 µM, first compound 0.316 µM
[28] = second compound 10 µM, first compound 1 µM
[29] = second compound 10 µM, first compound 3.16 µM
[30] = second compound 10 µM, first compound 10 µM

Compound	pIC50 (second compound 0.1 µM)	pIC50 (second compound 0.316 µM)	pIC50 (second compound 1 µM)	pIC50 (second compound 3.16 µM)	pIC50 (second compound 10 µM)	viability, T/C [1]	viability, T/C [2]	viability, T/C [3]	viability, T/C [4]	viability, T/C [7]	viability, T/C [8]	viability, T/C [9]	viability, T/C [10]	viability, T/C [13]	viability, T/C [14]	viability, T/C [15]	viability, T/C [16]	viability, T/C [19]	viability, T/C [20]	viability, T/C [21]	further results
CC(C)c1c(-c2ccccc2)nc2c(C#N)c[nH]n2c1=O + NC1CCC(NC2CC2c2ccccc2)CC1	< 5.00	< 5.00	< 5.00	< 5.00	< 5.00	85.7%	80.3%	79.1%	82.8%	75.2%	89.2%	77.9%	74.2%	74.1%	74.8%	75.5%	80.1%	76.6%	73.1%	71.5%	viability, T/C [5]: 71.1%; viability, T/C [6]: 69.4%; viability, T/C [11]: 68.9%; viability, T/C [12]: 54.7%; viability, T/C [17]: 68.8%; viability, T/C [18]: 59.4%; viability, T/C [22]: 68.8%; viability, T/C [23]: 71.9%; viability, T/C [24]: 64.2%; viability, T/C [25]: 66.7%; viability, T/C [26]: 60.5%; viability, T/C [27]: 70.1%; viability, T/C [28]: 65.5%; viability, T/C [29]: 65.8%; viability, T/C [30]: 46.5%
CC1COCCN1c1cc(-c2ccnn2C)c2ccnc(-c3ccn[nH]3)c2n1 (stereo not given) + NC1CCC(NC2CC2c2ccccc2)CC1	7.23	6.99	7.26	7.26	7.33	56.3%	42.7%	42.2%	29.8%	58.2%	42.7%	48.8%	28.6%	56.2%	39.6%	44.3%	30.3%	55.8%	44.8%	42%	viability, T/C (second compound 0.1 µM, first compound 0.00316 µM): 59.3%; viability, T/C (second compound 0.1 µM, first compound 0.01 µM): 76.7%; viability, T/C (second compound 0.316 µM, first compound 0.00316 µM): 71.4%; viability, T/C (second compound 0.316 µM, first compound 0.01 µM): 71.2%; viability, T/C (second compound 1 µM, first compound 0.00316 µM): 68.5%; viability, T/C (second compound 1 µM, first compound 0.01 µM): 62%; viability, T/C (second compound 3.16 µM, first compound 0.00316 µM): 68.4%; viability, T/C (second compound 3.16 µM, first compound 0.01 µM): 56.4%; viability, T/C [22]: 31.4%; viability, T/C (second compound 10 µM, first compound 0.00316 µM): 78.1%; viability, T/C (second compound 10 µM, first compound 0.01 µM): 66.9%; viability, T/C [25]: 53.1%; viability, T/C [26]: 41.8%; viability, T/C [27]: 38.5%; viability, T/C [28]: 29.9%
COc1ccc([C@@H](O)c2cc(-c3ncnc4cc(N5CCOCC5)ccc34)c(F)cc2Cl)nn1 + NC1CCC(NC2CC2c2ccccc2)CC1	6.09	6.27	6.22	6.08	6.36	92%	84.7%	62.1%	49.4%	82.1%	70.6%	58.2%	40.8%	75%	65.3%	65.2%	38.7%	68%	65.2%	66.2%	viability, T/C [5]: 29.2%; viability, T/C [6]: 21%; viability, T/C [11]: 30.3%; viability, T/C [12]: 21.4%; viability, T/C [17]: 27.5%; viability, T/C [18]: 21.6%; viability, T/C [22]: 46.3%; viability, T/C [23]: 25.5%; viability, T/C [24]: 16.7%; viability, T/C [25]: 89.4%; viability, T/C [26]: 60%; viability, T/C [27]: 50.4%; viability, T/C [28]: 49%; viability, T/C [29]: 26.6%; viability, T/C [30]: 14.9%
